Experimental data from PMC9411606, “Control cell migration by engineering integrin ligand assembly” (Nature Communications, 2022).

Tests used:
HuH-7 cells [1] = test: MTT assay, HuH-7 cell viability; assay type: cell-based, human; settings: HuH-7, 10-200 µM, 24, 48, 72 hr
Protocol: Huh-7 cells were seeded in 96-well plates at a density of 5 × 10^3 cells/ well. The cells were allowed to adhere by incubating at 37 °C with 5% CO2 for 12 hr. 100 μL of Cultured medium containing 10% FBS and the desired concentration of peptide replaced to each well and the cells were then incubated with the peptide solution for another 24, 48, or 72 hr. After the desired time of incubation, 10 μL of MTT (12 mM, Invitrogen) solution at a concentration of 5 mg/mL was added to each well and incubated at 37 °C for another 4 hr. The reduction reaction was terminated by adding 100 μL of 10% of SDS solution (in Milli-Q) and incubated for 12 hr to dissolve the formazan crystals formed in the cells. A Nivo multimode plate reader (PerkinElmer) was used to measure the optical density at the 570 nm wavelength of each well. All experiments were conducted in triplicate, and the results were calculated as mean ± standard deviation and presented as cell viability.

[2] = system: integrin knockdown HuH-7 cells; test: Wound healing assay, integrin knockdown HuH-7; assay type: cell-based, human; settings: 48 hr wound healing, 100 µM, n = 6
Protocol: Healthy cells were seeded in 96-well Image Lock plates (Essen Bioscience, UK). Each well contained 2 ×10^4 to 5 × 10^4 cells in 100 μL of complete cell culture medium. Cell monolayer with approximately 90% confluence formed after 12 hr and cells were next starved in serum-free culture medium for 12 hrs. Homogenous scratch wounds with a width of about 700 μm were made by an Essen BioScienceWound Maker. The detached cells were washed with Dulbecco’s Buffered Saline (DPBS, Gibco) 3 times. Cells were incubated with 100 μL of culture medium containing 0.5 % FBS and desired concentration of each peptide. Wound closure was monitored by an IncucyteS3 (Essen Bioscience) with a 10x objective. Images for each well were acquired every 2 hr to 8 hr for 2 days or until the wounds were closed completely. The wound healing rate was quantified by Incucyte Scratch Wound Analysis Module (Essen Bioscience). The experiments were repeated at least 3 times, and the results were presented as mean ± standard deviation of at least 3 independent experiments.
Integrin β1 shRNA plasmid (#sc-29375-SH), Integrin α3 shRNA plasmid (#sc-35684-SH), Integrin α6 shRNA plasmid (#sc-43129-SH), and control shRNA plasmid-A (#sc-108060) were purchased from Santa Cruz Biotechnology for knockdown of the target integrins. The knockdown efficiency was evaluated by western blotting.

[3] = TEM imaging / preparation of peptide assemblies (nanofilament size and stability); assay type: physicochemical; settings: in water
Protocol: To prepare the stocks of peptide assembled nanofilaments, the required amount of peptide was dissolved in Milli-Q water at 100 mM (for FFF) or 10 mM (for the other peptides, and peptides mixture) and adjust the solution to reach a final pH of 7.0 using 1 N NaOH solution. To stabilize the peptide assemblies, the stock solutions were stored at room temperature for at least 24 h before application. The obtained nanofilaments were very stable and were not affected by simple dilution at neutral pH. Therefore, to prepare the working solution, the desired amount of stock solution was diluted using Milli-Q water or the culture medium. Stand the working solutions for 30 min to evenly distribute nanofilaments in the working solution before applying them to the experiments.
To prepare TEM samples, 5 μL peptide solution was dropped on a glow-charged copper grid (400 mesh) coated with carbon film. After removing excess solution, the grid was gently washed three times to remove excess nanofilaments. Then the sample grid was negatively stained using 1.0% (w/v) uranyl acetate and air-dried. TEM images were captured at a high vacuum using a transmission electron microscope (JEM-1230R, JEOL, Japan).

HuH-7 cells [4] = test: Random cell migration assay; assay type: cell-based, human
Protocol: HuH-7 cells were labeled with fluorescent protein fusion constructs or Hoechst 33342. After being treated with or without the peptides for 12 hr, the cells were tracked with a 20x/0.8 Plan-Apochromat objective for 6 h. The centroids of labeled cells were tracked using the TrackMate plugin (https://imagej.net/plugins/trackmate/) in ImageJ[44]. A custom MATLAB script generated by a person was applied to reconstruct the cell migration trajectory. […]
The directionality of the cell movement was described by the persistence index and the persistent time, the persistence index was defined by the ratio of the vectorial distance (the distance between the origin and the endpoint of the movement) and the length of the total path and the persistent time is defined as the time it takes for the cell to change the initial direction by 90°[45].

HuH-7 cells [5] = test: Traction stress analysis; assay type: cell-based, human; settings: HuH-7 on PDMS, 12 hr, n = 18-21 cells
Protocol: mRuby-Lifeact-7 transfected HuH-7 cells were applied for the traction force microscopy experiments. The in situ fluorescent images of the cell was applied to define the area of measurement. The cells were seeded on a PDMS substrate functionalized with 0.2 µm FluoSpheres™ Carboxylate-Modified Microspheres (F8807, Invitrogen) at a density of approximately 6000 cells/cm^2. The substrate was fabricated by following the published protocol on (STAR) Protocol[45], except that there were no ECM proteins coated on the substrate here. […] After being pretreated with peptides for 12 hr, the samples were imaged by a 100×/1.35 Silicon UPlanSApo objective, and the bead displacement obtained from confocal imaging was converted into force-displacement fields following established protocol[47],[48]. Briefly, Images of beads with and without cell attachment were first aligned to correct experimental drift using ImageJ plugin “align slices in stack”. The displacement field was subsequently calculated by another ImageJ plugin “PIV (Particle Image Velocimetry)”. The cross-correlation PIV with a size of 64 × 32 pixels was used on all images for the PIV analysis to produce the position and vector field of the bead displacement. With the displacement field obtained from the PIV analysis, the traction force field was then reconstructed by the ImageJ plugin “FTTC”. […]

FFFIKLLI [assembling ligand: FFF coupled to the N-terminus of IKLLI; self-assembles into nanofilaments]
cytotoxicity (HuH-7 cells [1]): without inducing cytotoxicity
suppression efficacy after knockdown of α3 or β1 integrin subunit [2]: attenuated the suppression efficacy
suppression efficacy after knockdown of α6 subunit (attenuated?) [2]: did not
nanofilament width ([3]; TEM, FFFIKLLI 100 μM): ~ 100 nm
nanofilament stability ([3]; neutral pH, simple dilution): stable
cell motility, vin258-expressing cells (HuH-7 cells [4]; HuH-7 expressing vin258, 12 h): suppression effect on cell motility was remained
migration speed (HuH-7 cells [4]; Tiam1/Rac1-activated HuH-7, n = 230, 232 cells, p = 0.4508 vs Ctrl): 0.3729 µm/min
migration speed (HuH-7 cells [4]; vin258-transfected HuH-7, mean, n = 169, 176 cells): 0.140 µm/min
Average Traction Stress (HuH-7 cells [5]): 0.101 kPa
Maximal Traction Stress (HuH-7 cells [5]): 0.828 kPa
